Experimental data reported in patent publication US20250368623A1, “PYRIDAZINONE-DERIVED COMPOUNDS FOR THE MODULATION OF MYC AND FOR MEDICAL USES” (GENETIC INTELLIGENCE, INC, priority 2022, published 2025).

Experiments:
[1] = test system: HEK-293; assay: ApoTox-Glo Triplex assay (live-dead ratio), HEK-293; format: cell-based; conditions: Homo sapiens, HEK293, 48 h, HEK-293, 2-day incubation
Procedure: (§1) The effects of test compounds on cell viability and apoptosis are determined using the ApoTox-Glo Triplex assay kit (Promega G6320) according to the following protocol. The human cancer cell line (e.g., HepG2) and a non-cancer human cell line (e.g., HEK-293), are seeded at 20,000 cells per well in a 96-well plate. After 1 day, the cells are treated with test compounds at various final concentrations (e.g., 10 nM, 31.6 nM, 100 nM, 316 nM, 1 μM, 3.16 μM, 10 μM, 20 μM, etc.). After a 2-day incubation period, the ApoTox-Glo Triplex assay is performed according to the kit manufacturer's protocol. […] After incubation for 30 minutes at 37° C., the fluorescence signal is measured at two wavelength sets (400Ex/505Em) and (485Ex/520Em) to assess live-cell protease activity and dead-cell protease activity respectively. […] After incubation for 30 minutes at room temperature, the luminescent signal is measured using a microplate reader. […]
(§2) The cytotoxic effect of test compounds according to the ApoTox-Glo Triplex assay is calculated as follows. The live-dead ratio is calculated by dividing the fluorescence signal for live-cell protease activity with the fluorescence signal for dead-cell protease activity. […]

[2] = test system: A549; assay: CCK-8 cell viability assay, A549; format: cell-based; conditions: Homo sapiens; CCK-8, A549, 2-day or 3-day incubation, cytotoxic effect
Procedure: The effect of test compounds on cell viability is determined using the CCK-8 assay kit (Dojindo CK04-1000) according to the following protocol. The human cancer cell lines (e.g., A549, HepG2, JeKo-1, MDA-MB-231, etc.) and non-cancer human cell lines (e.g., HEK-293, HaCaT, etc.), are seeded at 20,000 cells per well in a 96-well plate. After 1 day, the cells are treated with test compounds at various final concentrations (e.g., 10 nM, 31.6 nM, 100 nM, 316 nM, 1 μM, 3.16 μM, 10 μM, 20 μM, etc.). After a 2-day or 3-day incubation period, 10 μL of CCK-8 solution, which contains the WST-8 dye, is added to each well according to the kit manufacturer's protocol. After incubation for 1-4 hours, the absorbance at 450 nm is measured using a microplate reader. The absorbance at 450 nm measures the amount of WST-8 that is reduced to WST-8 formazan by cellular dehydrogenases, which is directly proportional to the number of living cells. The cytotoxic effect of test compounds at different concentrations is calculated by subtracting from 1 the ratio of absorbance of the compound-treated sample at 450 nm to that of the no-compound, solvent only (DMSO)-treated sample. […]

[3] = test system: HEK-293; assay: CellTiter-Glo 2.0 cell viability assay, HEK-293; format: cell-based; conditions: Homo sapiens, HEK293, 48 h; CellTiter-Glo 2.0, HEK-293, 2-day incubation
Procedure: (§3) The effect of test compounds on cell viability is also determined using the CellTiter-Glo 2.0 assay kit (Promega G9241) according to the following protocol. The human cancer cell line (e.g., HepG2) and a non-cancer human cell line (e.g., HEK-293), are seeded at 20,000 cells per well in a 96-well plate. After 1 day, the cells are treated with test compounds at various concentrations (e.g., 10 nM, 31.6 nM, 100 nM, 316 nM, 1 μM, 3.16 μM, 10 μM, 20 μM, etc.). After a 2-day incubation period, the CellTiter-Glo 2.0 assay is performed according to the kit manufacturer's protocol. […] The contents are mixed for 2 minutes on an orbital shaker to induce cell lysis, and incubated for 10 minutes at room temperature, following which the luminescent signal is measured using a microplate reader. […] The cytotoxic effect of test compounds at different concentrations is calculated by subtracting from 1 the ratio of the luminescence signal of the compound-treated sample to that of the no-compound, solvent only (DMSO)-treated sample. […] The IC50 values for the cytotoxic effect of each test compound in HepG2 cells are determined by plotting a dose-response curve to calculate the concentration of test compound that produces half of the maximum cytotoxic effect. […]

[4] = test system: MYC protein; assay: Western blot of MYC protein in human cancer cell lines; format: cell-based; conditions: about 1 μM, 2-day incubation, e.g., A549 or HepG2, GAPDH loading control, vs DMSO
Procedure: The level of reduction of MYC protein following treatment with test compounds is also assessed by Western blot according to the following protocol. The human cancer cell lines (e.g., A549 or HepG2) are seeded at 20,000 cells per well in a 96-well plate. After 1 day, the cells are treated with test compounds at a final concentration of about 1 μM. After a 2-day incubation period, the supernatant is removed from the wells and RIPA buffer is added to create cell lysates. The lysates are analyzed by Western blot and probed with a MYC-specific antibody (e.g., Proteintech 10828-1-AP) together with a GAPDH-specific antibody (e.g., Proteintech 10494-1-AP) to serve as loading control. The intensities of Western blot bands are quantified by FIJI (Image J). The relative expression value of MYC following treatment with a test compound is calculated by dividing the intensity of the MYC band of the sample with the intensity of its own GAPDH band. The value so obtained is presented as a percentage of that of the no-compound, solvent only (DMSO)-treated sample. A lower percentage of MYC protein in a sample with respect to the DMSO-treated sample indicates greater percentage reduction in MYC protein level due to the test compound, and vice versa.

[5] = test system: MDA-MB-231; assay: CCK-8 cell viability assay, MDA-MB-231; format: cell-based; conditions: Homo sapiens; CCK-8, MDA-MB-231, 2-day or 3-day incubation, cytotoxic effect
Procedure: The effect of test compounds on cell viability is determined using the CCK-8 assay kit (Dojindo CK04-1000) according to the following protocol. The human cancer cell lines (e.g., A549, HepG2, JeKo-1, MDA-MB-231, etc.) and non-cancer human cell lines (e.g., HEK-293, HaCaT, etc.), are seeded at 20,000 cells per well in a 96-well plate. After 1 day, the cells are treated with test compounds at various final concentrations (e.g., 10 nM, 31.6 nM, 100 nM, 316 nM, 1 μM, 3.16 μM, 10 μM, 20 μM, etc.). After a 2-day or 3-day incubation period, 10 μL of CCK-8 solution, which contains the WST-8 dye, is added to each well according to the kit manufacturer's protocol. After incubation for 1-4 hours, the absorbance at 450 nm is measured using a microplate reader. The absorbance at 450 nm measures the amount of WST-8 that is reduced to WST-8 formazan by cellular dehydrogenases, which is directly proportional to the number of living cells. The cytotoxic effect of test compounds at different concentrations is calculated by subtracting from 1 the ratio of absorbance of the compound-treated sample at 450 nm to that of the no-compound, solvent only (DMSO)-treated sample. A higher number indicates a greater cytotoxic effect of the test compound on cells (corresponding to a greater reduction in cellular dehydrogenase activity), and vice versa. The IC50 values for the cytotoxic effect of each test compound in A549, HepG2, JeKo-1, and/or MDA-MB-231 cells are determined by plotting a dose-response curve to calculate the concentration of test compound that produces half of the maximum cytotoxic effect. The cytotoxic effect and IC50 of test compounds are also measured in a non-cancer human cell line (e.g., HEK-293, and/or HaCaT) as a proxy for healthy cells to determine the therapeutic window of the test compounds (i.e., the concentration range at which the test compounds selectively kill cancer cells but not healthy cells). The therapeutic index of a test compound is defined herein as its IC50 in HEK-293 cells divided by its IC50 in HepG2 cells.

[6] = test system: HepG2; assay: CellTiter-Glo 2.0 cell viability assay, HepG2; format: cell-based; conditions: Homo sapiens, 48 h; CellTiter-Glo 2.0, HepG2, 2-day incubation
Procedure: as §3

[7] = test system: HepG2; assay: CCK-8 cell viability assay, HepG2; format: cell-based; conditions: Homo sapiens; CCK-8, HepG2, 2-day or 3-day incubation, cytotoxic effect
Procedure: The effect of test compounds on cell viability is determined using the CCK-8 assay kit (Dojindo CK04-1000) according to the following protocol. The human cancer cell lines (e.g., A549, HepG2, JeKo-1, MDA-MB-231, etc.) and non-cancer human cell lines (e.g., HEK-293, HaCaT, etc.), are seeded at 20,000 cells per well in a 96-well plate. After 1 day, the cells are treated with test compounds at various final concentrations (e.g., 10 nM, 31.6 nM, 100 nM, 316 nM, 1 μM, 3.16 μM, 10 μM, 20 μM, etc.). After a 2-day or 3-day incubation period, 10 μL of CCK-8 solution, which contains the WST-8 dye, is added to each well according to the kit manufacturer's protocol. After incubation for 1-4 hours, the absorbance at 450 nm is measured using a microplate reader. The absorbance at 450 nm measures the amount of WST-8 that is reduced to WST-8 formazan by cellular dehydrogenases, which is directly proportional to the number of living cells. The cytotoxic effect of test compounds at different concentrations is calculated by subtracting from 1 the ratio of absorbance of the compound-treated sample at 450 nm to that of the no-compound, solvent only (DMSO)-treated sample. […] The IC50 values for the cytotoxic effect of each test compound in A549, HepG2, JeKo-1, and/or MDA-MB-231 cells are determined by plotting a dose-response curve to calculate the concentration of test compound that produces half of the maximum cytotoxic effect.

[8] = test system: HepG2; assay: ApoTox-Glo Triplex assay (live-dead ratio), HepG2; format: cell-based; conditions: Homo sapiens, 48 h, HepG2, 2-day incubation
Procedure: as §1, §2

[9] = test system: caspase 3/7 activation in HepG2; assay: ApoTox-Glo Triplex assay, caspase 3/7 activation in HepG2; format: cell-based, human; conditions: vs DMSO
Procedure: The effects of test compounds on cell viability and apoptosis are determined using the ApoTox-Glo Triplex assay kit (Promega G6320) according to the following protocol. The human cancer cell line (e.g., HepG2) and a non-cancer human cell line (e.g., HEK-293), are seeded at 20,000 cells per well in a 96-well plate. After 1 day, the cells are treated with test compounds at various final concentrations (e.g., 10 nM, 31.6 nM, 100 nM, 316 nM, 1 μM, 3.16 μM, 10 μM, 20 μM, etc.). After a 2-day incubation period, the ApoTox-Glo Triplex assay is performed according to the kit manufacturer's protocol. In brief, 20 μL of viability/cytotoxicity reagent containing both GF-AFC substrate (cell-permeant substrate to measure live-cell protease activity) and bis-AAF-R110 substrate (cell-impermeant substrate to measure dead-cell protease activity) is added to each sample, and briefly mixed by orbital shaking (300-500 rpm for ˜30 seconds). After incubation for 30 minutes at 37° C., the fluorescence signal is measured at two wavelength sets (400Ex/505Em) and (485Ex/520Em) to assess live-cell protease activity and dead-cell protease activity respectively. Following the measurement of the live-cell and dead-cell protease activities, 25 μl of Caspase-Glo 3/7 Reagent containing a luminogenic DEVD-peptide substrate for caspase-3/7 and thermostable luciferase is added to each sample, and briefly mixed by orbital shaking (1300-1500 rpm for ˜30 seconds). After incubation for 30 minutes at room temperature, the luminescent signal is measured using a microplate reader. The luminescent signal directly correlates with caspase-3/7 activity, which is a key indicator of apoptosis.
The fold-change of caspase 3/7 activation is calculated by dividing the luminescence signal of the compound-treated sample with that of the no-compound, solvent only (DMSO)-treated sample.

[10] = test system: MYC RNA; assay: RT-qPCR of MYC RNA in human cancer cell lines; format: cell-based; conditions: 24 h, about 1 μM, 1-day incubation, e.g., A549, HepG2, beta-actin normalized, vs DMSO, read-out: % reduction of MYC RNA
Procedure: The level of reduction of MYC RNA following treatment with test compounds is assessed using RT-qPCR according to the following protocol. The human cancer cell lines (e.g., A549, HepG2) are seeded at 20,000 cells per well in a 96-well plate. After 1 day, the cells are treated with test compounds at a final concentration of about 1 μM. After a 1-day incubation period, the supernatant is removed from the wells and lysis solution from the Cells-to-CT 1-Step Power SYBR Green Kit (Invitrogen A25599) is added to create cell lysates, according to the kit manufacturer's protocol. The kit manufacturer's protocol is then followed to perform RT-qPCR for each sample using a pair of MYC-specific primers (e.g., SEQ ID NO: 4 and SEQ ID NO: 5) to detect MYC RNA, as well as a pair of beta-actin-specific primers (e.g., SEQ ID NO: 6 and SEQ ID NO: 7) to detect beta-actin RNA, which serves as a loading control. The relative expression levels of MYC and beta-actin RNAs are calculated using a standard curve generated from a dilution series of untreated cell lysates. The normalized level of MYC RNA following treatment with a test compound is calculated by dividing the relative expression level of MYC in the sample by the relative expression level of beta actin in the same sample. The value so obtained is presented as a percentage of that of the no-compound, solvent only (DMSO)-treated sample. A lower percentage of MYC RNA in a sample with respect to the DMSO-treated sample indicates greater percentage reduction in MYC RNA levels due to the test compound, and vice versa.

Cc1nc(C)c(-c2ccc(=O)n(CC3CCN(c4ncnc5ncccc45)CC3)n2)s1 [6-(2,4-dimethylthiazol-5-yl)-2-((1-(pyrido[2,3-d]pyrimidin-4-yl)piperidin-4-yl)methyl)pyridazin-3(2H)-one]
IC50 [1]: 35900 nM | IC50 [2]: 1300 nM | IC50 [3]: 72900 nM | % reduction of MYC protein [4]: 67% | IC50 [5]: 800 nM | IC50 [6]: 100 nM | IC50 [7]: 300 nM | IC50 [8]: 100 nM | Fold-change of caspase 3/7 activation ([9]; HepG2, compound concentration 10 nM): 1.245 | Fold-change of caspase 3/7 activation ([9]; HepG2, compound concentration 31.6 nM): 1.204 | Fold-change of caspase 3/7 activation ([9]; HepG2, compound concentration 100 nM): 0.853 | Fold-change of caspase 3/7 activation ([9]; HepG2, compound concentration 316 nM): 0.586 | Fold-change of caspase 3/7 activation ([9]; HepG2, compound concentration 1000 nM): 0.420 | Fold-change of caspase 3/7 activation ([9]; HepG2, compound concentration 3160 nM): 0.371 | Fold-change of caspase 3/7 activation ([9]; HepG2, compound concentration 10000 nM): 0.308 | Fold-change of caspase 3/7 activation ([9]; HepG2, compound concentration 20000 nM): 0.280 | inhibition at 1 µM [10]: 45%
